Measured values from patent US11932652B2, “Pyrrolidinyl urea derivatives and application thereof in TrkA-related diseases” (ZHANGZHOU PIEN TZE HUANG PHARMACEUTICAL CO., LTD., priority 2018, dated 2024).

Experiments:
[1] = In vivo pharmacokinetics in beagle dogs after single administration
Method: Male beagle dogs were used as test animals, the concentration of the compound in blood after single administration was determined to evaluate the pharmacokinetic behavior.
Beagle dogs (Male, 6-12 kg, more than 6 months, Beijing Marshall Biotechnology Co., Ltd.).
The objective of the test was to study the pharmacokinetic characteristics of the test compound in non-rodent after intravenous injection and oral administration. In the experiment, the test compound was prepared into a clear solution or homogeneous suspension and administered to the beagle dogs by single intravenous injection or oral administration. In the intravenous injection group, the menstruum was a certain proportion of dimethyl sulfoxide in HP-β-cyclodextrin solution or a certain proportion of ethanol, polyethylene glycol 400 and physiological saline solution, the mixture was vortexed and subjected to ultrasonic treatment to prepare 2 mg/mL or […] clear solution, then filtered with microporous membrane for later use; in the oral administration group, the menstruum was a certain proportion of dimethyl sulfoxide in HP-β-cyclodextrin solution or a certain proportion of sodium carboxymethyl cellulose solution, the test compound was mixed with the menstruum, vortexed and subjected to ultrasonic treatment to prepare 2 mg/mL clear solution or 1 mg/mL homogeneous suspension for later use. After 2 mg/kg or 1 mg/kg intravenous administration or 10 mg/kg or 5 mg/kg oral administration to the Beagle dogs, a certain amount of whole blood samples were collected, centrifuged at 3000 g for 10 minutes, and the supernatant was separated to obtain plasma samples; then an acetonitrile solution containing internal standard with a volume 10 times that of the plasma sample was added to precipitate proteins, and then centrifuged; the supernatant was separated for analysis; LC-MS/MS analysis method was used to quantitatively analyze the blood drug concentration, and Phoenix WinNonlin software (Pharsight, USA) was used to calculate the pharmacokinetic parameters, such as peak concentration, time to peak concentration, clearance rate, half-life, area under the concentration-time curve, bioavailability, etc.
(§1) Among them, C0 is the initial concentration, T1/2 is the elimination half-life, Vdss is the steady-state apparent volume of distribution, Cl is the total clearance rate, AUC0-inf is the area under the plasma drug concentration-time curve from time 0 to infinity, Cmax is the peak concentration, Tmax is the time to peak concentration.

[2] = In vivo pharmacokinetics in rats after single administration; settings: male, Sprague-Dawley, rat, plasma, 10 mg/kg, 10 mpk oral administration
Method: Male SD rats were used as test animals, and the concentration of the compound in blood was determined after single administration to evaluate the pharmacokinetic behavior.
Sprague Dawley rats (male, 200-300 g, 7-9 weeks, Shanghai Charles River Laboratory Animal Co., Ltd.)
The pharmacokinetic characteristics of the test compound in rodents after intravenous injection and oral administration were tested by standard protocols, in the experiment, the test compound was prepared into a clear solution or homogeneous suspension, and administered to the rats by single intravenous injection and oral administration. In the intravenous injection group, the menstruum was a certain proportion of ethanol and physiological saline solution or a certain proportion of dimethyl sulfoxide in HP-β cyclodextrin solution (pH was adjusted to 3-4), the mixture was vortexed and stirred to prepare 2 mg/mL or 1 mg/mL clear solution, then filtered with microporous membrane for later use; in the oral administration group, the menstruum was a certain proportion of sodium carboxymethyl cellulose solution or a certain proportion of dimethyl sulfoxide in HP-0 cyclodextrin solution (pH was adjusted to about 4), after the test compound was mixed with the solvent, the mixture was vortexed and stirred to prepare 2 mg/mL or 1 mg/mL homogeneous suspension or clear solution for later use. After 2 mg/kg intravenous administration or 10 mg/kg oral administration to rats, a certain amount of whole blood samples were collected, centrifuged at 3000 g for 15 minutes, the supernatant was separated to give the plasma samples; then an acetonitrile solution containing internal standard with a volume 3 times that of the plasma sample was added to precipitate proteins, and then centrifuged; the supernatant was separated, and water with a volume twice that of the supernatant was added to the supernatant, which was then centrifuged again; the supernatant was collected for analysis; LC-MS/MS analysis method was used to quantitatively analyze the blood drug concentration, and Phoenix WinNonlin software (Pharsight, USA) was used to calculate the pharmacokinetic parameters, such as peak concentration, time to peak concentration, clearance rate, half-life, area under the concentration-time curve, bioavailability, etc.
as §1

[3] = male, beagle, dog, plasma, 10 mg/kg, dogs, 10 mpk oral administration

- AUC(0-inf) [1, 3]: 7.69 µM·h
- Cmax [1, 3]: 3940 nM
- Tmax [1, 3]: 0.63 h
- bioavailability [1, 3]: 33%
- half-life [1, 3]: 2.2 h
- AUC(0-inf) [2]: 3.24 µM·h
- Cmax [2]: 1790 nM
- Tmax [2]: 0.63 h
- bioavailability [2]: 24.8%
- half-life [2]: 1.6 h
SMILES: COCCN1C[C@@H](n2ccc(F)c2)[C@H](NC(=O)Nc2c(C)c(-c3cnc(C4(F)COC4)nc3)nn2-c2ccccc2)C1 [Compound 7]
- pharmacokinetic properties and oral bioavailability (in words) ([1]; in beagle dogs): good pharmacokinetic properties and oral bioavailability
